# Laboratory results from ChEMBL document CHEMBL5634090, “Design of phenothiazine-based cationic amphiphilic derivatives incorporating arginine residues: Potential membrane-active broad-spectrum antimicrobials combating pathogenic bacteria in vitro and in vivo” (Eur J Med Chem, 2023).
# Calls of active or inactive are those of the source. The rule behind the calls is not given here.
# How the values were obtained:
# Escherichia coli [1] = assay: Antibacterial activity against Escherichia coli ATCC 25922 by microbroth dilution assay; format: functional
# Pseudomonas aeruginosa [2] = assay: Antibacterial activity against Pseudomonas aeruginosa ATCC 9027 in presence of 2.50 mmol/L Ca2+ by broth microdilution method; format: functional
# Staphylococcus aureus [3] = assay: Antibacterial activity against methicillin resistant Staphylococcus aureus NCTC 10442 in presence of 20 umol/L Fe3+ by broth microdilution method; format: functional
# Staphylococcus aureus [4] = assay: Antibiofilm activity against 24 hrs preformed biofilm in Staphylococcus aureus ATCC 29213 assessed as reduction in biofilm viability at 0.39 ug/ml relative to control; format: functional; details: dose 0.39 µg/ml
# [5] = Selectivity index, ratio of CC50 for cytotoxicity against HEK293 cells to MIC for antibacterial activity against Klebsiella pneumoniae ATCC 10031; format: toxicity, cell-based; details: human, read-out: Selectivity Index
# Klebsiella pneumoniae [6] = assay: Antibacterial activity against Klebsiella pneumoniae ATCC 10031 in presence of 19 umol/L Fe2+ by broth microdilution method; format: functional
# [7] = Selectivity index, ratio of CC50 for cytotoxicity against mouse NCTC clone 929 cells to MIC for antibacterial activity against methicillin resistant Staphylococcus aureus NCTC 10442; format: toxicity, cell-based; details: read-out: Selectivity Index
# Klebsiella pneumoniae [8] = assay: Antibacterial activity against Klebsiella pneumoniae ATCC 10031 in presence of 20 umol/L Fe3+ by broth microdilution method; format: functional
# Escherichia coli [9] = assay: Antibacterial activity against Escherichia coli ATCC 25922 in presence of 4.5 mmol/L K+ by broth microdilution method; format: functional
# [10] = Selectivity index, ratio of CC50 for cytotoxicity against HEK293 cells to MIC for antibacterial activity against Staphylococcus aureus ATCC 29213; format: toxicity, cell-based; details: human, read-out: Selectivity Index
# Staphylococcus aureus [11] = assay: Antibacterial activity against methicillin resistant Staphylococcus aureus N315 in presence of 19 umol/L Zn2+ by broth microdilution method; format: functional
# Klebsiella pneumoniae [12] = assay: Inhibition of biofilm formation in Klebsiella pneumoniae ATCC 10031 by crystal violet staining assay; format: functional, organism-based; details: dose 0.78-25 µg/ml
# Klebsiella pneumoniae [13] = assay: Antibacterial activity against Klebsiella pneumoniae ATCC 10031 assessed as reduction in bacterial load at 4 times MIC measured after 2 hrs by time kill assay relative to control; format: functional; design: scale not given: the % may be the effect or the level left
# Staphylococcus aureus [14] = assay: Antibiofilm activity against 24 hrs preformed biofilm in Staphylococcus aureus ATCC 29213 assessed as reduction in biofilm viability at 6.25 ug/ml relative to control; format: functional; details: dose 6.25 µg/ml
# Klebsiella pneumoniae [15] = assay: Antibacterial activity against Klebsiella pneumoniae ATCC 14581 in presence of 4.5 mmol/L K+ by broth microdilution method; format: functional
# Pseudomonas aeruginosa [16] = assay: Antibacterial activity against Pseudomonas aeruginosa ATCC 9027 by microbroth dilution assay; format: functional
# [17] = Cytotoxicity against mouse NCTC clone 929 cells assessed as cell survival rate at 12.5 ug/ml by CCK-8 assay relative to control; format: toxicity, cell-based; details: NCTC clone 929 (L929) cells, at 12.5 µg/mL, read-out: Activity
# [18] = Selectivity index, ratio of CC50 for cytotoxicity against mouse NCTC clone 929 cells to MIC for antibacterial activity against methicillin resistant Staphylococcus aureus N315; format: toxicity, cell-based; details: read-out: Selectivity Index
# Klebsiella pneumoniae [19] = assay: Antibacterial activity against Klebsiella pneumoniae ATCC 14581 in presence of 19 umol/L Zn2+ by broth microdilution method; format: functional
# Klebsiella pneumoniae [20] = assay: Inhibition of biofilm formation in Klebsiella pneumoniae ATCC 10031 at 25 ug/ml by crystal violet staining assay relative to control; format: functional
# [21] = Selectivity index, ratio of CC50 for cytotoxicity against mouse NCTC clone 929 cells to MIC for antibacterial activity against Escherichia coli ATCC 25922; format: toxicity, cell-based; details: read-out: Selectivity Index
# Staphylococcus aureus [22] = assay: Antibacterial activity against methicillin resistant Staphylococcus aureus NCTC 10442 in presence of 20 umol/L Fe2+ by broth microdilution method; format: functional
# Klebsiella pneumoniae [23] = assay: Antibacterial activity against Klebsiella pneumoniae ATCC 10031 in presence of 4.5 mmol/L K+ by broth microdilution method; format: functional
# [24] = Selectivity index, ratio of CC50 for cytotoxicity against mouse NCTC clone 929 cells to MIC for antibacterial activity against Klebsiella pneumoniae ATCC 10031; format: toxicity, cell-based; details: read-out: Selectivity Index
# Staphylococcus aureus [25] = assay: Antibacterial activity against Staphylococcus aureus ATCC 29213 assessed as log reduction in bacterial load at 8 times MIC measured after 2 hrs by time kill assay; format: functional
# Pseudomonas aeruginosa [26] = assay: Antibacterial activity against Pseudomonas aeruginosa ATCC 9027 in presence of 1.00 mmol/L Mg2+ by broth microdilution method; format: functional
# Pseudomonas aeruginosa [27] = assay: Antibacterial activity against Pseudomonas aeruginosa ATCC 9027 in presence of 20 umol/L Fe3+ by broth microdilution method; format: functional
# Escherichia coli [28] = assay: Antibacterial activity against Escherichia coli ATCC 25922 in presence of 20 umol/L Fe2+ by broth microdilution method; format: functional
# Staphylococcus aureus [29] = assay: Antibacterial activity against Staphylococcus aureus ATCC 29213 in presence of 1 mmol/L Mg2+ by broth microdilution method; format: functional
# Klebsiella pneumoniae [30] = assay: Antibiofilm activity against 24 hrs preformed biofilm in Klebsiella pneumoniae ATCC 10031 assessed as reduction in biofilm viability at 0.78 ug/ml relative to control; format: functional; details: dose 0.78 µg/ml
# Klebsiella pneumoniae [31] = assay: Antibiofilm activity against 24 hrs preformed biofilm in Klebsiella pneumoniae ATCC 10031 assessed as reduction in biofilm viability at 6.25 ug/ml relative to control; format: functional; details: dose 6.25 µg/ml
# Pseudomonas aeruginosa [32] = assay: Antibacterial activity against Pseudomonas aeruginosa ATCC 9027 infected in cyclophosphamide immunosuppressed keratitis mouse model assessed as reduction in corneal injury at 10 mg/ml administrated tropically; format: functional, organism-based
# Pseudomonas aeruginosa [33] = assay: Antibacterial activity against Pseudomonas aeruginosa ATCC 9027 in presence of 140 mmol/L Na+ by broth microdilution method; format: functional
# Klebsiella pneumoniae [34] = assay: Antibacterial activity against Klebsiella pneumoniae ATCC 14581 in presence of 1 mmol/L Mg2+ by broth microdilution method; format: functional
# Klebsiella pneumoniae [35] = assay: Inhibition of biofilm formation in Klebsiella pneumoniae ATCC 10031 at 6.25 ug/ml by crystal violet staining assay relative to control; format: functional
# [36] = Selectivity index, ratio of CC50 for cytotoxicity against HEK293 cells to MIC for antibacterial activity against methicillin resistant Staphylococcus aureus N315; format: toxicity, cell-based; details: human, read-out: Selectivity Index
# Escherichia coli [37] = assay: Antibacterial activity against Escherichia coli ATCC 25922 in presence of 1 mmol/L Mg2+ by broth microdilution method; format: functional
# Klebsiella pneumoniae [38] = assay: Antibacterial activity against Klebsiella pneumoniae ATCC 10031 by microbroth dilution assay; format: functional
# Staphylococcus aureus [39] = assay: Antibacterial activity against methicillin resistant Staphylococcus aureus NCTC 10442 in presence of 19 umol/L Zn2+ by broth microdilution method; format: functional
# Staphylococcus aureus [40] = assay: Antibacterial activity against methicillin resistant Staphylococcus aureus N315 in presence of 20 umol/L Fe2+ by broth microdilution method; format: functional
# Staphylococcus aureus [41] = assay: Antibiofilm activity against 24 hrs preformed biofilm in Staphylococcus aureus ATCC 29213 assessed as reduction in biofilm viability at […] ug/ml relative to control; format: functional; details: dose […] microg/ml; 1.56 ug/mL
# Staphylococcus aureus [42] = assay: Antibacterial activity against Staphylococcus aureus ATCC 29213 in presence of 4.5 mmol/L K+ by broth microdilution method; format: functional
structure (smiles),measurement,setting,value
CCCCCCCN1c2ccccc2Sc2ccc(OCC(=O)N[C@@H](CCCNC(=N)N)C(=O)N[C@@H](CCCNC(=N)N)C(N)=O)cc21,MIC,Escherichia coli [1],3.12 µg/mL
same,MIC,Pseudomonas aeruginosa [2],6.25 µg/mL
same,MIC,Staphylococcus aureus [3],1.56 µg/mL
same,Activity,Staphylococcus aureus [4],97.35%
same,selectivity ratio,[5],8
same,MIC,Klebsiella pneumoniae [6],6.25 µg/mL
same,selectivity ratio,[7],8
same,MIC,Klebsiella pneumoniae [8],6.25 µg/mL
same,MIC,Escherichia coli [9],3.12 µg/mL
same,selectivity ratio,[10],8
same,MIC,Staphylococcus aureus [11],1.56 µg/mL
same,inhibition,Klebsiella pneumoniae [12],Dose-Dependent Effect
same,Activity,Klebsiella pneumoniae [13],>99.9%
same,Activity,Staphylococcus aureus [14],15.93%
same,MIC,Klebsiella pneumoniae [15],3.12 µg/mL
same,MIC,Pseudomonas aeruginosa [16],6.25 µg/mL
same,viability at 12.5 ug/ml,[17],70.8%
same,selectivity ratio,[18],8
same,MIC,Klebsiella pneumoniae [19],3.12 µg/mL
same,inhibition at 25 µg/mL,Klebsiella pneumoniae [20],96.6%
same,selectivity ratio,[21],8
same,MIC,Staphylococcus aureus [22],1.56 µg/mL
same,MIC,Klebsiella pneumoniae [23],3.12 µg/mL
same,selectivity ratio,[24],8
same,log(activity),Staphylococcus aureus [25],>3
same,MIC,Pseudomonas aeruginosa [26],6.25 µg/mL
same,MIC,Pseudomonas aeruginosa [27],6.25 µg/mL
same,MIC,Escherichia coli [28],3.12 µg/mL
same,MIC,Staphylococcus aureus [29],3.12 µg/mL
same,Activity,Klebsiella pneumoniae [30],82.83%
same,Activity,Klebsiella pneumoniae [31],10.44%
same,Activity,Pseudomonas aeruginosa [32],inactive
same,MIC,Pseudomonas aeruginosa [33],6.25 µg/mL
same,MIC,Klebsiella pneumoniae [34],3.12 µg/mL
same,inhibition at 6.25 µg/mL,Klebsiella pneumoniae [35],90%
same,selectivity ratio,[36],8
same,MIC,Escherichia coli [37],3.12 µg/mL
same,MIC,Klebsiella pneumoniae [38],3.12 µg/mL
same,MIC,Staphylococcus aureus [39],1.56 µg/mL
same,MIC,Staphylococcus aureus [40],1.56 µg/mL
same,Activity,Staphylococcus aureus [41],62.14%
same,MIC,Staphylococcus aureus [42],1.56 µg/mL
